Results published in publication PMC4492579, “Potent and Selective Triazole-Based Inhibitors of the Hypoxia-Inducible Factor Prolyl-Hydroxylases with Activity in the Murine Brain” (PLoS ONE, 2015).
Structures can show the parent of a compound that is named as a salt.

Key:
JMJD3 (KDM6B) = JMJD3 (KDM6B) (Homo sapiens, UniProt O15054); test: KDM AlphaScreen assay, JMJD3
Method: Inhibition assays for PHD2 (AlphaScreen) [9], the KDMs (AlphaScreen) [17], BBOX [18] and FTO [19] were carried out as previously described. […] IC50 values were calculated using nonlinear regression with normalized dose-response fit using GraphPad Prism 5.

JMJD2C (KDM4C) = molecular target: T1, JMJD2C (KDM4C) (Homo sapiens, UniProt Q9H3R0); test: KDM AlphaScreen assay, JMJD2C
T1 sequence (Q9H3R0 1-1056): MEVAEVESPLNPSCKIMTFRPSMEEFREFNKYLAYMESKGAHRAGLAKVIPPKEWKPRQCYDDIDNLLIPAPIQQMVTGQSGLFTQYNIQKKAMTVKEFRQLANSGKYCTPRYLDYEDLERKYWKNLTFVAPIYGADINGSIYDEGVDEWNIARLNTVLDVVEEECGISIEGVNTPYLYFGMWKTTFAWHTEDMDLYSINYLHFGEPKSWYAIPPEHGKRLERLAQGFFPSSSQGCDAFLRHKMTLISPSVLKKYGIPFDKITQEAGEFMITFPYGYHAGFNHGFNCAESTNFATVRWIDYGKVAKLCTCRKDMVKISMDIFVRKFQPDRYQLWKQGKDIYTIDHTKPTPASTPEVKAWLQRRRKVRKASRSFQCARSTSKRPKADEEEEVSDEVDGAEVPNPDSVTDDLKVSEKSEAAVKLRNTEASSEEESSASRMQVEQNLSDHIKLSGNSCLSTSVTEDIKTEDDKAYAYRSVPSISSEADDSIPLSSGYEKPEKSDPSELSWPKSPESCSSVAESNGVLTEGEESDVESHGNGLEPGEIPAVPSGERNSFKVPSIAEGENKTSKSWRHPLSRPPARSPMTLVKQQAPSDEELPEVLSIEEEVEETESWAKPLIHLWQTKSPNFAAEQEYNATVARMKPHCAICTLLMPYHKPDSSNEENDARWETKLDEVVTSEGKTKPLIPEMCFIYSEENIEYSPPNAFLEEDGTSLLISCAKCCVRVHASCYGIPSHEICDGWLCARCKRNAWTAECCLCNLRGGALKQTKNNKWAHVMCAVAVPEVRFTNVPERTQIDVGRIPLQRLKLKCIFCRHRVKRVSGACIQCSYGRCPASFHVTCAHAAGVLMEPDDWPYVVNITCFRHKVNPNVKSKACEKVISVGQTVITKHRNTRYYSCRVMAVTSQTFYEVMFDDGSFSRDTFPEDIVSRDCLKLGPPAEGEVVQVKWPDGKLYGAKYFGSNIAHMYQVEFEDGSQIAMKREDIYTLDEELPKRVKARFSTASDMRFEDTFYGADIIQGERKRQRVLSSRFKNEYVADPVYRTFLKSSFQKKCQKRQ
Method: Inhibition assays for PHD2 (AlphaScreen) [9], the KDMs (AlphaScreen) [17], BBOX [18] and FTO [19] were carried out as previously described. N-Terminally biotinylated 19-residue human HIF1α CODD peptide ([sequence]) used in the PHD2 inhibition assays was from GL Biochem (Shanghai). IC50 values were calculated using nonlinear regression with normalized dose-response fit using GraphPad Prism 5.

HeLa cells = test: Immunoblotting of HIF1α induction in HeLa cells; format: cell-based, human; settings: VHL-competent HeLa cells, immunoblot
Method: (§1) Human cell lines (RCC4, HeLa, Hep3B, MCF-7 and U2OS) were cultured in DMEM (D6546-500ML; Sigma Aldrich) each supplemented with 10% fetal bovine serum (F7524-500ML; Sigma Aldrich), 2 mM L-glutamine (G7513- 100ML; Sigma Aldrich), 50 units/ml of penicillin, and 50 μg/ml of streptomycin (P0781-100ML; Sigma Aldrich). The RCC4 cell line was a gift from C.H.C.M. Buys (University of Groningen, [2]), the HeLa and Hep3B cell lines were from the European Collection of Cell Cultures (ECACC), the MCF-7 cell line was from the American Type Culture Collection (ATCC) and the U2OS cell line was a gift from S.Galey (ICRF Clare Hall Laboratories, United Kingdom). Cells were treated either with DMSO (control) or compounds (dissolved in DMSO) and added directly into the cell culture medium to the desired final concentration for 4–5 h as previously described.
Cells were extracted using urea/SDS buffer (6.7 M urea, 10 mM Tris-HCl pH 6.8, 10% glycerol and 1% SDS) and processed for immunoblotting as described. The following primary antibodies were used for immunoblotting: mouse monoclonal HIF1α antibody clone 54 (610958, BD Transduction Laboratories, 1:1000), rabbit polyclonal HIF1α hydroxy-Pro402 antibody (07–1585, Millipore, 1:1000), rabbit monoclonal HIF1α hydroxy-Pro564 antibody clone D43B5 (3434S, Cell Signaling, 1:500), mouse monoclonal HIF1α hydroxy-Asn803 antibody (a kind gift from Dr M. K. Lee, Republic of Korea, 1:4000), mouse monoclonal PHD2 antibody clone 76a (1:10), mouse monoclonal FIH antibody clone 162c (1:200) and β-actin/HRP (clone AC15, Abcam). HRP-conjugated swine polyclonal anti-rabbit IgG (P0399, Dako), and goat polyclonal anti-mouse IgG (P0447, Dako) were used as secondary antibodies.
In this cell line, the extent of the differential HIF1α prolyl hydroxylation at the N-terminal and C-terminal oxygen-dependent degradation domains (HyPro402 and HyPro564, respectively), as well as HIF1α asparaginyl hydroxylation at the C-terminal transactivation domain (HyAsn803) can be interrogated by immunoblotting using hydroxylation specific antibodies.

HIF1α and HIF2α = test: HIFα induction in tissues of treated mice (immunoblotting); format: in vivo, C57BL/6 mice; settings: i.p.; for HIF1α and HIF2α induction in liver, kidney and heart / HIF1α and HIF2α induction in the brain: equimolar: IOX2 37.7 mg/kg, IOX4 35 mg/kg, DMOG 75 mg/kg
Method: All animal experiments were performed on male C57BL/6 mice aged 3 months (purchased from Harlan Laboratories, Blackthorn) housed in specific pathogen free conditions with free access to water and standard chow. Mice were injected intraperitonially with the inhibitor (dissolved in Hanks’ buffered saline solution, pH 7.0, 5% DMSO final) or vehicle at the indicated doses for the indicated time as previously described. Tissues from treated mice were harvested and ‘snap frozen’ with liquid nitrogen before being stored at -80°C. For immunoblotting, a portion of the tissues was removed, weighed and homogenised in urea/SDS buffer before being analysed by immunoblotting with HIF1α rabbit polyclonal antibody (10006421, Cayman Chemical, 1:1000) or HIF2α rabbit polyclonal antibody (PM9 [27], 1:1000). For RNA extraction, tissues were ‘snap frozen’ in liquid nitrogen immediately after harvesting, then ground to a fine powder using a cryogenic tissue pulveriser, keeping samples on dry ice at all times and processed for total RNA extraction using the mirVana miRNA isolation kit (AM1560, Life Technologies) according to the manufacturer’s protocol for processing frozen tissues. All animal procedures were compliant with the UK Home Office Animals (Scientific Procedures) Act 1986 and Local Ethical Review Procedures (University of Oxford Medical Sciences Division Ethical Review Committee).
The inhibitors or vehicle controls were injected intraperitonially into wild type C57BL/6 mice and sacrificed after the indicated treatment time before harvesting their tissues to be analysed for HIFα levels by immunoblotting.

[1] = test system: MCF-7, Hep3B and U2OS cells; test: Immunoblotting of HIF1α induction in MCF-7, Hep3B and U2OS cells; format: cell-based, human; settings: immunoblot
Method: as §1
Cells were extracted using urea/SDS buffer (6.7 M urea, 10 mM Tris-HCl pH 6.8, 10% glycerol and 1% SDS) and processed for immunoblotting as described. […]

Sequence of JMJD3 (KDM6B) (O15054 whole entry): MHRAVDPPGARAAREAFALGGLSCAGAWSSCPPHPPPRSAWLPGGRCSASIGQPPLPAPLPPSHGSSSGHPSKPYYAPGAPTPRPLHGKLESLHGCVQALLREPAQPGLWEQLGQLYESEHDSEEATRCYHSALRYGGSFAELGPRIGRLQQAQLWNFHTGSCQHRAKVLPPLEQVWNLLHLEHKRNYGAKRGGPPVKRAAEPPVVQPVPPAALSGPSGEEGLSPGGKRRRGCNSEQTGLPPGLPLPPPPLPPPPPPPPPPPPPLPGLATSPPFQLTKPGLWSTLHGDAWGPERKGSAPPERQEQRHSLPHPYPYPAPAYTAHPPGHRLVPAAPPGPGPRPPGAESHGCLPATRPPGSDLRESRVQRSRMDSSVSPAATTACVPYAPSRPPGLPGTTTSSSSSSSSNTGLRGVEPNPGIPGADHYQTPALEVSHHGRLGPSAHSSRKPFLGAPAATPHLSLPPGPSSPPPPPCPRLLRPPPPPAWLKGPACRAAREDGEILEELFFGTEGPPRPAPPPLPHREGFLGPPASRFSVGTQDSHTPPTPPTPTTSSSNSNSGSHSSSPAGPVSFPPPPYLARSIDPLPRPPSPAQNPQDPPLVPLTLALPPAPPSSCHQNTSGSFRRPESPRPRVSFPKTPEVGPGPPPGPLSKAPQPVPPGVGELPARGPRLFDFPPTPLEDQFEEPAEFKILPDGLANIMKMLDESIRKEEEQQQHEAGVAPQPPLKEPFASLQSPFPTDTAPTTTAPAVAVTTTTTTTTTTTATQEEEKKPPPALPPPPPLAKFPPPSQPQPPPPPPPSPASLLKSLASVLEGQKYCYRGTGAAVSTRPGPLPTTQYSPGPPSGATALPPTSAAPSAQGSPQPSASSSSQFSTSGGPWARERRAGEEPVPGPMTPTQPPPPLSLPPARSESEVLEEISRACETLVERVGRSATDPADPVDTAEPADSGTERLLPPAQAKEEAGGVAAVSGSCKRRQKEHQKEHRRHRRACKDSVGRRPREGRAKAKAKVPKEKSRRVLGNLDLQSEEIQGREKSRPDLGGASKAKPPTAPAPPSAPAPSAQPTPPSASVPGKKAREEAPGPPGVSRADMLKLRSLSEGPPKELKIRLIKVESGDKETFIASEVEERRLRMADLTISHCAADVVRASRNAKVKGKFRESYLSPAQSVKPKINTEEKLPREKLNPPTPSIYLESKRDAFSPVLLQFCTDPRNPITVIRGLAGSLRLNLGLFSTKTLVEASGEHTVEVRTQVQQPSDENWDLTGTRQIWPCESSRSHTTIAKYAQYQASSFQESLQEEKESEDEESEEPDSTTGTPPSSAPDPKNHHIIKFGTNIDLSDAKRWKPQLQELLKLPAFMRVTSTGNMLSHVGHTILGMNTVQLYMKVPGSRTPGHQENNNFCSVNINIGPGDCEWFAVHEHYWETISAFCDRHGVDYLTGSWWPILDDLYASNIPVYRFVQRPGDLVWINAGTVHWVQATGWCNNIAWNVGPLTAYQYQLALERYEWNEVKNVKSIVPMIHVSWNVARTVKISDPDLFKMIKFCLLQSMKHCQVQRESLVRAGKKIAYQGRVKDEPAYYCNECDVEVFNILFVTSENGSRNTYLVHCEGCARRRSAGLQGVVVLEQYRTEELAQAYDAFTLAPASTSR

Row | Structure (SMILES) | IC50 (JMJD3 (KDM6B)) | IC50 (JMJD2C (KDM4C)) | HIF1α induction (HeLa cells) | concentration at which activity (HIF1α induction) observed (HeLa cells) | HIF1α and HIF2α induction in the liver and brain, dose dependence (HIF1α and HIF2α; 1 h, 17.5 to 70 mg/kg) | HIF1α and HIF2α induction in liver, kidney and heart (HIF1α and HIF2α; 1 h) | HIF1α and HIF2α induction in the brain (HIF1α and HIF2α; 1 h) | HIF1α induction [1] | HIF1α induction in mouse liver (HIF1α and HIF2α; IOX2 37.7 mg/kg, IOX3 30 mg/kg (equivalent molar dose), 1 h and […])
1 | CC(C)(C)OC(=O)c1ccc(-n2[nH]cc(-n3ccnn3)c2=O)nc1 [IOX4, t-Butyl 6-(5-oxo-4-(1H-1,2,3-triazol-1-yl)-2,5-dihydro-1H-pyrazol-1-yl)nicotinate] | 1.4 µM | > 20 µM | induced HIF1α | ≥ 1 µM | Dose-dependent induction | induction of HIF1α and HIF2α | induced | Induction of HIF1α levels were observed | 
2 | O=C(O)c1ccc(-n2[nH]cc(-n3ccnn3)c2=O)nc1 [compound 1, 6-(5-oxo-4-(1H-1,2,3-triazol-1-yl)-2,5-dihydro-1H-pyrazol-1-yl)pyridine-3-carbocylic acid hydrochloride] | > 20 µM | > 20 µM | induced HIF1α |  |  |  |  |  | 
3 | O=C(O)CNC(=O)c1c(O)c2ccccc2n(Cc2ccccc2)c1=O [IOX2] |  |  |  |  |  | strongest induction | not | Induction of HIF1α levels were observed | induced in mouse liver after 1 h
